Values of other authors as cited in patent publication US20160378912A1, “STRUCTURE-BASED MODELING AND TARGET-SELECTIVITY PREDICTION” (EPIGENETX, LLC, priority 2013, published 2016).

Assays:
HDAC2 = HDAC2 (Homo sapiens, UniProt Q92769); conditions: cited from earlier work
HDAC7 = target: T1, HDAC7 (Homo sapiens, UniProt Q8WUI4); conditions: cited from earlier work
T1 sequence (Q8WUI4 1-952): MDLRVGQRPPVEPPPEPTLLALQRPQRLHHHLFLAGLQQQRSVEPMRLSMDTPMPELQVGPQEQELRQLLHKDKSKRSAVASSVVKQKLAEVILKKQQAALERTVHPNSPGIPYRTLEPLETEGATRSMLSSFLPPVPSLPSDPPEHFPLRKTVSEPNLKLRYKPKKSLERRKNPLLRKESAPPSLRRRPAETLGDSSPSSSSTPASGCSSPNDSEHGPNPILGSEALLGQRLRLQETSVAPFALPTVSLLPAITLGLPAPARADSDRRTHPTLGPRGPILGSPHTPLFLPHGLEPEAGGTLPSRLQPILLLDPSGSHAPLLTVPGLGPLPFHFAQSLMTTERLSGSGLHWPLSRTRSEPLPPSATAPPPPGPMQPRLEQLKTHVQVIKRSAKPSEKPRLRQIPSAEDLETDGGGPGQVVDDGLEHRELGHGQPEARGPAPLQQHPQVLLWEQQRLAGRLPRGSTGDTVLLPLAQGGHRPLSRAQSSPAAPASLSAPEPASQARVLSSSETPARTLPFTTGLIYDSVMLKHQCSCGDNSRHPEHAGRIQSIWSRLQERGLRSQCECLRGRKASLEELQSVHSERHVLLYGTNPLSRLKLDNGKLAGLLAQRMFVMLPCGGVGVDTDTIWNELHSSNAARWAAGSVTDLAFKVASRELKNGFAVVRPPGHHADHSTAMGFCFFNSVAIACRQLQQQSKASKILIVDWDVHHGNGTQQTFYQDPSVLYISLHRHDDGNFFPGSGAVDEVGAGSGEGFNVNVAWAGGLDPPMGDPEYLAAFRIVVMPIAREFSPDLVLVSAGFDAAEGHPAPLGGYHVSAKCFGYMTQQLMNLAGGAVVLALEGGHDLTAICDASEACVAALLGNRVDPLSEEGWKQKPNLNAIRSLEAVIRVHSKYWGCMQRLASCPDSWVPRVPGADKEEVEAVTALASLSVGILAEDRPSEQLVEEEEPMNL

[1] = training set, read-out: HDACs inhibitory activities IC50

Chain of HDAC2 (Q92769 whole entry): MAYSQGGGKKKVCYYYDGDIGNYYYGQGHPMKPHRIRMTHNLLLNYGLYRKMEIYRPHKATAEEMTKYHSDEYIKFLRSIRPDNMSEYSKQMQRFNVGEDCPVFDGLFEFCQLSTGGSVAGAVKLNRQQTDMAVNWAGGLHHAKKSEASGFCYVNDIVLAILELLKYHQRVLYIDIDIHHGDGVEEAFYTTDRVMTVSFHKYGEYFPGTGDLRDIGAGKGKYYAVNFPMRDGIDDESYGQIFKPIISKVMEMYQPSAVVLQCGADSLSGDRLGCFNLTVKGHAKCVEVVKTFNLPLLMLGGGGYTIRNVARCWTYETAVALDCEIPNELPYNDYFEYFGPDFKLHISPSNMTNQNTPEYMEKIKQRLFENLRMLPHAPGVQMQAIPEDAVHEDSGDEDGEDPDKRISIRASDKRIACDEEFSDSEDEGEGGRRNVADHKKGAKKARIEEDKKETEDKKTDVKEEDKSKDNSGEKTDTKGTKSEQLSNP

## CCCC(=O)O [NABUT, Butyrate]
HDAC2; training set composition
  pIC50: 4.54
HDAC2; [1]
  IC50: 28.9 µM
HDAC7; training set composition
  pIC50: 4.52
HDAC7; [1]
  IC50: 30 µM
